Patent publication US7709014B2, “Hydroxy-oligocarboxylic esters: effects on nerve and use for cutaneous and mucocutaneous organs or sites” (priority 2005, dated 2010)
Counter-ions that a name gives are not always drawn.

Columns and labels:
nerves of the lips = assay: Topical application of ester ointment or cream on the lips of human subjects: sensual, sensational, plumping or numbing feelings; format: in vivo; conditions: for duration of the feelings of the lips / sensual, sensational or plumping feelings of the lips / time after application until the lips experienced the feelings: 10% in water-non-washable ointment, human; for feelings of the lips: cream or ointment containing 10%, topically applied to lips (general description)
Excerpt: The mucocutaneous organs or sites include lips, mouth, gum, nostrils, nipples, vulva, vagina, penis and anus.
Ethyl glycolate 10 g was mixed with 90 g ointment prepared from white petrolatum 50 parts, mineral oil 40 parts and white beeswax 10 parts. The composition thus prepared contained 10% ethyl glycolate in a hydrophobic ointment that was not washable with water (a water-non-washable ointment).
A subject, topically applied the above 10% ethyl glycolate ointment on their lips.
L-Ethyl lactate 10 g was mixed with 90 g ointment prepared from white petrolatum 50 parts, mineral oil 40 parts and white beeswax 10 parts. The composition thus prepared contained 10% L-ethyl lactate in water-non-washable ointment. A subject, topically applied the above 10% L-ethyl lactate ointment on their lips.
DL-Diethyl malate 10 g was mixed with 90 g ointment prepared from white petrolatum 50 parts, mineral oil 40 parts and white beeswax 10 parts. The composition thus prepared contained 10% DL-diethyl malate in a water-non-washable ointment.
A subject, topically applied the above 10% DL-diethyl malate ointment on their lips.
D-Diethyl tartarate 10 g was mixed with 90 g ointment prepared from white petrolatum 50 parts, mineral oil 40 parts and white beeswax 10 parts. The composition thus prepared contained 10% D-diethyl tartarate in a water-non-washable ointment.
A subject, topically applied the above 10% D-diethyl tartarate ointment on their lips.
L-Diethyl tartarate 10 g was mixed with 90 g ointment prepared from white petrolatum 50 parts, mineral oil 40 parts and white beeswax 10 parts. The composition thus prepared contained 10% L-diethyl tartarate in a water-non-washable ointment. A subject, topically applied the above 10% L-diethyl tartarate ointment on their lips.
Trimethyl citrate 10 g was mixed with 90 g ointment prepared from white petrolatum 50 parts, mineral oil 40 parts and white beeswax 10 parts. The composition thus prepared contained 10% trimethyl citrate in a water-non-washable ointment.
A subject, topically applied the above 10% trimethyl citrate ointment on their lips.
Lidocaine 5 g was dissolved in warm propylene glycol 20 ml, and the solution thus obtained was mixed with 75 g ointment prepared from white petrolatum 50 parts, mineral oil 40 parts and white beeswax 10 parts. The composition thus prepared contained 5% lidocaine in a water-non-washable ointment.
A subject, topically applied the above 5% lidocaine ointment on their lips.
Tripropyl citrate 10 g was mixed with 90 g ointment prepared from white petrolatum 50 parts, mineral oil 40 parts and white beeswax 10 parts. The composition thus prepared contained 10% tripropyl citrate in a water-non-washable ointment.
A subject, topically applied the above 10% tripropyl citrate ointment on their lips.
Tri-isopropyl citrate 10 g was mixed with 90 g ointment prepared from white petrolatum 50 parts, mineral oil 40 parts and white beeswax 10 parts. The composition thus prepared contained 10% tri-isopropyl citrate in a water-non-washable ointment.
A subject, topically applied the above 10% tri-isopropyl citrate ointment on their lips.

[1] = test system: mucocutaneous organs or sites; assay: Topical application to mucocutaneous organs or sites: general findings on sensuous, sensational and mild anesthetic effects; format: in vivo, human; conditions: for sensuous or mild anesthetic effect: topical application, same conditions as the hydroxy-oligocarboxylic esters
Excerpt: The present invention is based on the discovery that topical application of a hydroxy-oligocarboxylic ester, preferably a hydroxydicarboxylic ester or more preferably a hydroxytricarboxylic ester such as tripropyl citrate on topical application can produce sensuous, sensational and mild anesthetic effects on mucocutaneous organs or sites, such as lips, mouth, gum, nostrils, nipples, vulva, vagina, penis and anus. […] The sensuous and sensational effects produced by the hydroxy-oligocarboxylic ester, preferably a hydroxydicarboxylic ester or more preferably a hydroxytricarboxylic ester are quite different from the numbing effects induced by local anesthetics such as lidocaine and procaine. The sensuous, sensational and mild anesthetic effects produced by the hydroxy-oligocarboxylic ester according to the present invention generally last from a few minutes to a few hours. Such nerve-acting sensation or effect has many cosmetic, dental and dermatological applications. For example, a lipstick or lip balm comprising a hydroxy-oligocarboxylic ester, preferably a hydroxydicarboxylic ester or more preferably a hydroxytricarboxylic ester, can provide a sensuous or sensational feeling after topical application to lips of a human subject. Such sensuous action and certain anesthetic effects on nervous system produced by the hydroxy-oligocarboxylic ester can have beneficial applications such as to relieve itch or pain of lips, mouth, gum, nostrils, nipples, vulva, vagina, penis and anus, and for conditions associated with eczema, hemorrhoids, dry or aging-associated changes of the vulva and vagina.

[2] = test system: itchy and eczematous skin (atopic eczema); assay: Topical application on itching, eczematous skin of a human subject: relief of itch; format: in vivo; conditions: for effect on itch associated with eczema or psoriasis / time after topical application until the itch disappears: cream or ointment containing 10%, topically applied to eczematous or psoriatic lesions (general description)
Protocol: A composition comprising a hydroxy-oligocarboxylic ester, preferably a hydroxydicarboxylic ester, and more preferably a hydroxytricarboxylic ester, can also be topically applied to mucocutaneous or skin lesions. For example, a cream or ointment containing 10% tripropyl citrate or tri-isopropyl citrate can be topically applied to eczematous or psoriatic lesions twice daily for 4 to 16 weeks.
Tripropyl citrate 10 g and propylene glycol 20 ml were mixed with hydrophilic ointment or oil-in-water emulsion 70 g. The composition thus prepared contained 10% tripropyl citrate in water-soluble oil-in-water emulsion.
A subject, having atopic eczema with severe itching skin, topically applied the above 10% tripropyl citrate cream on their right leg with itchy eczematous lesions. […]

[3] = test system: itchy and eczematous skin (atopic eczema); assay: as above; format: in vivo; conditions: 10% in water-non-washable ointment, itching skin of right lower leg, subject with atopic eczema
[4] = 5% in water-non-washable ointment with propylene glycol, topically applied on lips, subject
[5] = 10% cream (water-soluble oil-in-water emulsion with propylene glycol), itchy eczematous lesions of right leg, subject with atopic eczema

| SMILES | duration of the feelings of the lips (nerves of the lips; topically applied on lips) | sensual, sensational or plumping feelings of the lips (nerves of the lips; topically applied on lips) | time after application until the lips experienced the feelings (nerves of the lips; topically applied on lips) | also measured |
| --- | --- | --- | --- | --- |
| CCOC(=O)CC(O)C(=O)OCC (racemic) [DL-diethyl malate, DL-Diethyl malate] | 10 to 20 min | sensual and plumping feelings | one to two | – |
| CCOC(=O)C(C)O (stereo not shown) [ethyl lactate] | – | – | – | sensuous or mild anesthetic effect [1]: does not produce a sensuous or mild anesthetic effect |
| CC(C)OC(=O)CC(O)(CC(=O)OC(C)C)C(=O)OC(C)C [tri-isopropyl citrate, Tri-isopropyl citrate] | about an hour | sensual and sensational feelings | a few | feelings of the lips (nerves of the lips): sensual and sensational pleasure with very mild anesthetic effects; effect on itch associated with eczema or psoriasis [2]: usually disappears; time after topical application until the itch disappears [2]: a few |
| CCOC(=O)[C@H](O)[C@@H](O)C(=O)OCC [L-diethyl tartarate, L-Diethyl tartarate] | 10 to 20 min | slight sensual and plumping feelings | one to two | – |
| CCN(CC)CC(=O)Nc1c(C)cccc1C [lidocaine, Lidocaine, reference compound] | – | – | – | duration of the numbing effect (nerves of the lips; [4]): several; numbing effect on the lips (nerves of the lips; [4]): the lips felt numb; time after application until the lips felt numb (nerves of the lips; [4]): a few |
| O=C(CC(O)(CC(=O)OCc1ccccc1)C(=O)OCc1ccccc1)OCc1ccccc1 [tribenzyl citrate, Tribenzyl citrate] | – | slight sensual and sensational feelings | a few | – |
| CCOC(=O)CC(O)(CC(=O)OCC)C(=O)OCC [triethyl citrate, Triethyl citrate] | 20 to 30 min | sensual and plumping feelings | one to two | feelings of the lips (nerves of the lips): sensual and sensational pleasure with very mild anesthetic effects; effect on itch [3]: the itch stopped; time after application until the itch stopped [3]: a few; time the skin remained free of itch [3]: 4 h |
| CCCOC(=O)CC(O)(CC(=O)OCCC)C(=O)OCCC [tripropyl citrate, Tripropyl citrate] | 90 to 120 min | sensual and sensational feelings | a few | feelings of the lips (nerves of the lips): sensual and sensational pleasure with very mild anesthetic effects; sensuous and sensational effects compared with trimethyl citrate ([1]; strength and duration, compared with trimethyl citrate): much stronger and longer-lasting sensuous and sensational effects; effect on itch [2, 5]: the itch disappeared completely; time after application until the itch disappeared [2, 5]: a few; time the skin remained free of itch [2, 5]: 4 h; effect on itch associated with eczema or psoriasis [2]: usually disappears; time after topical application until the itch disappears [2]: a few |
| CCOC(=O)CO [ethyl glycolate, Ethyl glycolate, reference compound] | – | no sensual or sensational feelings during the next 30 minutes | – | sensuous or mild anesthetic effect [1]: does not produce a sensuous or mild anesthetic effect |
| CCOC(=O)[C@H](C)O [L-ethyl lactate, L-Ethyl lactate, reference compound] | – | no sensual or sensational feelings during the next 30 minutes | – | – |
| COC(=O)CC(O)(CC(=O)OC)C(=O)OC [trimethyl citrate, Trimethyl citrate] | – | very slight sensual and plumping feelings | one to two | – |
| CCOC(=O)[C@@H](O)[C@H](O)C(=O)OCC [D-diethyl tartarate, D-Diethyl tartarate] | 10 to 20 min | slight sensual and plumping feelings | one to two | – |
